Where two headings read alike, the source gives them in different places.

Results on 7 compounds are retold here after US4898887A, “Compounds and compositions having anti-inflammatory and analgesic activity” (The Procter & Gamble Company, priority 1986, dated 1990).

The test system of data set [1] is analgesia and inflammation. The data set is described as follows: intramuscular administration to human: analgesia and inflammation. In kind it is in vivo. The note with it: Example III, ethyl oleate/benzyl alcohol, 1.5 ml in 65 kg human. Here is the method: The octadecatrienamide is dissolved in the solution combining ethyl oleate and benzyl alcohol, sealed into airtight 5 ml ampoules, and sterilized by autoclaving.
A composition for parenteral administration of N-vanillyl-5Z,8Z,11Z,14Z-eicosatetraenamide is prepared by a substantially similar method.

The subject of data set [2] is analgesia and inflammation. The data set is described as follows: oral administration to human: analgesia and inflammation. The class given is in vivo. As to the method:
A composition for oral administration of N-vanillyl-5Z,8Z,11Z,14Z-eicosatetraenamide is prepared by a substantially similar method.

In data set [3] the test system is analgesia and inflammation. The experiment in a line: topical administration to human: analgesia and inflammation. The class given is in vivo. To be noted: Example VI, 0.4 ml to 80 cm^2 of forearm of 60 kg human. As to the method:
The octadecatrienamide is melted to a liquid with slight warming and combined with the other ingredients.
A composition for topical application of N-vanillyl-5Z,8Z,11Z,14Z-eicosatetraenamide is prepared by a substantially similar method.

The subject of data set [4] is croton oil-induced mouse ear inflammation. The data set is described as follows: croton oil-induced mouse ear inflammation test. The class given is in vivo, mouse (adult male Cox ICR mice). The note with it: 25 μl of 1% ethanolic solution on left ear, 20-28 h and 5-6 h prior to sacrifice; 2% croton oil 4 h prior to sacrifice. Here is the method:
Two trienamide compositions were tested for anti-inflammatory activity using the croton oil-induced mouse ear inflammation test.
Adult male Cox ICR mice, 20-30 g, were treated on the left ear at 20-28 hours prior to sacrifice and a second time 5-6 hours prior to sacrifice with 25 μl of a 1% ethanolic solution of the test compound. Four hours prior to sacrifice both ears were treated with 25 μl of a 2% solution of croton oil in acetone. Each animal was then placed in individual cages and given food and water ad lib. Animals were sacrificed by cervical dislocation and both ears removed. From these ears, 0.38 cm^2 punch biopsies were taken from the central portion and each biopsy weighed on a Cahn electrobalance.
For each test substance, a group of 10 animals was used. Control groups either had both ears treated with croton oil or just the right ear. It was experimentally determined that a value of 11.0 mg could be assumed for a punch biopsy from a normal untreated ear and still be within the experimental error of the test. Therefore, for the calculation of percent inhibition, a value of 11.0 mg was used. [formula]
This calculation is valid only when no systemic effects are noted as evidenced by comparison of right ears of treated and control groups.
Statistical signifance at the 95% confidence level was determined by the paired test.

Data set [5] concerns phenylbenzoquinone-induced writhing. The experiment in a line: phenylquinone writhing assay. In kind it is in vivo, mouse (male mice). To be noted: oral gavage 3 h before i.p. 0.2% phenylbenzoquinone; 10 minute period; vehicle control 17.4 ± 1.7. As to the method:
Three trienamide composition were tested for analgesic and anti-inflammatory activity using the phenylquinone writhing assay.
Groups of eight male mice weighing between approximately 25 and 30 g were dosed orally by gavage with the composition to be tested. Identical groups of mice were dosed with control compositions. Three hours after this initial administration, the mice were injected intraperitoneally with a 0.2% solution of phenylbenzoquinone in aqueous ethanol. The ability of the analgesic compositions tested to relieve the discomfort induced was measured by counting the number of abdominal contractions, or "writhes", occurring in each mouse during a 10 minute period beginning 10 minutes after injection of the phenylbenzoquinone solution.

Data set [6] relates to threshold for the perception of pain (hot plate, 55° C.). The data set is described as follows: Rodent Hot Plate Test (rats, VL).
Data set [7] relates to analgesia and inflammation. The data set is described as follows: analgesic and anti-inflammatory activity (general statement). In kind it is in vivo.
The nature of data set [8]: toxicity and narcotic side effects (general statement). The class given is in vivo.
Data set [9] concerns threshold for the perception of pain (hot plate, 55° C.). The note with it: unless administered in toxic quantities; cited from earlier work.
Data set [10] relates to analgesia and inflammation. To be noted: background, literature on capsaicin; cited from earlier work.
[11] abbreviates: Example IV, sesame oil soft gelatin capsules, two capsules of 225 mg in 60 kg human.
[12] abbreviates: Example V, syrup, one teaspoon in 70 kg adult human.

On to `CCCCC/C=C\C/C=C\C/C=C\C/C=C\CCCC(=O)NCc1ccc(O)c(OC)c1` [N-vanillyl-5Z,8Z,11Z,14Z-eicosatetraenamide], for which the analgesia result in [1], in [2] (setting [11]), in data set [2] (setting [12]) and in data set [3] was “produces analgesia” in each case. The reduction of inflammation entry in data set [1], in data set [2] (setting [11]), in [2] (setting [12]) and in data set [3] was “reduces inflammation” in each case.

On to `CCCCC/C=C\C/C=C\C/C=C\CCCCC(=O)NCc1ccc(O)c(OC)c1` [N-vanillyl-6Z,9Z,12Z-octadecatrienamide], for which, in [4], the “% Inhibition” value worked out at 100.7 ± 11.9%. Moreover, the Writhes/10 minutes in data set [5] came out at 0.0 ± 0.0 Writhes/10 minutes. The reduction of inflammation result in [1], in data set [2] (setting [11]), in [2] (setting [12]) and in data set [3] was “substantially similar reduction of inflammation” in each case.

With `CC/C=C\C/C=C\C/C=C\CCCCCCCC(=O)NCc1ccc(O)c(OC)c1` [N-vanillyl-9Z,12Z,15Z-octadecatrienamide], in data set [4], the “% Inhibition” value is on record as 78.5 ± 31.9%. In [5], this compound had a Writhes/10 minutes of 0.4 ± 0.3 Writhes/10 minutes. For the same compound, the analgesia entry in data set [1] is given as “produces analgesia”; in data set [2] (setting [11]), “producing analgesia”; in data set [2] (setting [12]), “producing analgesia”; in [3], “produces analgesia”. The reduction of inflammation result is on record as “reduces inflammation” in [1], “reducing inflammation” in data set [2] (setting [11]), “reducing inflammation” in [2] (setting [12]) and “reduces inflammation” in data set [3]. Moreover, the “% Animals Analgesic” value amounted to 70% in data set [6] (Example X, 20 mg/kg oral in sesame oil, 1 hr post-dose, vehicle 0); 30% in [6] (Example X, 20 mg/kg oral in sesame oil, 2 hrs post-dose, vehicle 20); 10% in [6] (Example X, 20 mg/kg oral in sesame oil, 3 hrs post-dose, vehicle 0); 80% in data set [6] (Experiment A, 200 mg/kg oral in propylene glycol, 1 hr post-dose, vehicle 20); 40% in data set [6] (Experiment A, 200 mg/kg oral in propylene glycol, 2 hrs post-dose, vehicle 10); 30% in [6] (Experiment A, 200 mg/kg oral in propylene glycol, 3 hrs post-dose, vehicle 0). The “% Animals Analgesic” value in data set [6] (Experiment B, 200 mg/kg oral in propylene glycol, 1 hr post-dose, vehicle 0) turned out to be 50%; in data set [6] (Experiment B, 200 mg/kg oral in propylene glycol, 2 hrs post-dose, vehicle 20) it was 60%; in data set [6] (Experiment B, 200 mg/kg oral in propylene glycol, 3 hrs post-dose, vehicle 0), 20%; in data set [6] (Experiment C, 288 mg/kg oral in propylene glycol, 1 hr post-dose, vehicle 10), 50%; in [6] (Experiment C, 288 mg/kg oral in propylene glycol, 2 hrs post-dose, vehicle 0), 10%; in data set [6] (Experiment C, 288 mg/kg oral in propylene glycol, 3 hrs post-dose, vehicle 0), 0%.

As to `CC/C=C\C/C=C\C/C=C\CCCCCCCCCC(=O)NCc1ccc(O)c(OC)c1` [N-vanillyl-11Z,14Z,17Z-eicosatrienamide], the Writhes/10 minutes in [5] was found to be 0.4 ± 0.3 Writhes/10 minutes. The reduction of inflammation entry in data set [1], in [2] (setting [11]), in data set [2] (setting [12]) and in data set [3] was “substantially similar reduction of inflammation” throughout. Besides, the “analgesic activity / potency compared with aspirin and opioids” value in [7] was “analgesic activity comparable to that of the opioids”. In [8], the “undesirable narcotic side effects (tolerance, physical dependence)” value is given as “does not exhibit undesirable narcotic side effects”.

Regarding `CC(=O)Nc1ccc(O)cc1` [acetaminophen], the “activity in the RHP system” value in data set [9] was “little or no activity”.

For `CC(=O)Oc1ccccc1C(=O)O` [aspirin], the “activity in the RHP system” value in [9] is “little or no activity”.

For `COc1cc(CNC(=O)CCCCC=CC(C)C)ccc1O` [capsaicin, 8-methyl-N-vanillyl-6-nonenamide], the analgesia result in [10] is “induces analgesia”.
